Results: patent US11895992B2, “Animal models of corneal ectatic diseases, methods of producing, and methods of use thereof” (priority 2014, dated 2024)
Where two headings read alike, the source gives them in different places.

Tests used:
[1] = test system: cornea of the right eye of a Wistar rat
Description: Rat models of corneal angiogenesis were produced as follows. Aqueous benzene compositions having the desired concentration (between 3.0 M and 7.0 M) were prepared by mixing benzene and water. The aqueous composition was then sterilized by heating to 100° C. for 15 minutes. In particular, 3.0 M, 4.0 M, 5.0 M, 6.0 M, or 7.0 M aqueous benzene compositions were prepared. Then, 10 μL of each composition was topically applied to the center of the cornea of the right eye of a Wistar rat that was two to three months old. The benzene aqueous composition was allowed to absorb into the eye, and was applied only once. Because the eye has its own natural protective mechanisms, it was not necessary to wash the eye at the end of the application.

[2] = test system: cornea of one eye of a Wistar rat
Description: A rat model of corneal keratoconus was produced as follows. An aqueous benzene composition having a concentration of 7.0 M to 8.5 M was prepared by mixing water and benzene. The composition was then sterilized by heating the solution to 100° C. for 15 minutes. The aqueous benzene composition (10 μL) was topically applied directly to the center of the cornea of one eye of a Wistar rat by micropipetting. The rat was three months old, and benzene was applied only once.

cornea = details: compared to the amount observed when benzene is used
[3] = test system: cornea of the right eye of a Wistar rat; details: for Observation in Treated Eye (Number of Rats) Angiogenesis / Observation in Treated Eye (Number of Rats) Corneal Keratoconus / Observation in Treated Eye (Number of Rats) No Change: 10 μL applied once, 5 rats treated
Description: Rat models of corneal angiogenesis and corneal keratoconus were produced as follows. Aqueous solutions of phenol having a concentration of 0.1 M, 0.5 M, 1.0 M, 3.0 M, 5.6 M, or 8.5 M were prepared by mixing phenol and water. The solutions were then sterilized by heating to 100° C. for 15 minutes. Then, 10 μL of the sterile phenol solution was topically applied to the center of the cornea of the right eye of a Wistar rat that was two months old. Five rats were treated for each concentration of phenol tested. The phenol solution was allowed to absorb into the eye, and was applied only once. Because the eye has its own natural protective mechanisms, it was not necessary to wash the eye at the end of the application.
Histological studies were performed after eight weeks following the application of phenol. The cornea was excised, and a piece of the corneal epithelium was stained with hematoxylin and eosin stain.

[4] = 7.0 M to 8.5 M aqueous benzene composition, 10 μL

## c1ccccc1 [benzene]
[1]; all concentrations of benzene (3.0 M to 7.0 M, 10 μL), as early as 15 days after application
  new blood vessel formation in the cornea: new blood vessels began to form in the cornea
[1]; single application of benzene
  persistence of observed growth of new blood vessels from the initial application: at least four
[1]; three weeks after application
  amount of new blood vessels observed in the cornea, compared with 15 days: even greater
[1]; within 15 days of application, 3.0 M to 7.0 M
  amount of new blood vessels observed when higher concentrations were applied: increased
[2]; [4]
  time at which changes in the cornea began to occur following application: within the first week
  time of protrusion of the cornea following application: within the second week
[2]; 7.0 M to 8.5 M aqueous benzene composition, 10 μL, applied once (FIG. 3)
  corneal tissue changes in addition to angiogenesis: marked thinning, and outward protrusion
[2]; 10 μL of a 9.0 M aqueous benzene composition
  severity of corneal keratoconus / endophthalmitis (intraocular infection): so severe that the rats developed endophthalmitis

## Oc1ccccc1 [phenol]
cornea
  fibrosis and scar tissue formation, phenol compared with benzene: less fibrosis and scar tissue formation
[3]; 3 M phenol solution, 10 μL, three weeks (FIG. 1B)
  other anatomical or inflammatory alterations besides new corneal vessels: no other anatomical or inflammatory alterations were observed
[3]; Phenol Concentration 0.1M
  Observation in Treated Eye (Number of Rats) Angiogenesis: 1 Number of Rats
  Observation in Treated Eye (Number of Rats) Corneal Keratoconus: 0 Number of Rats
  Observation in Treated Eye (Number of Rats) No Change: 4 Number of Rats
[3]; Phenol Concentration 0.5M
  Observation in Treated Eye (Number of Rats) Angiogenesis: 1 Number of Rats
  Observation in Treated Eye (Number of Rats) Corneal Keratoconus: 0 Number of Rats
  Observation in Treated Eye (Number of Rats) No Change: 4 Number of Rats
[3]; Phenol Concentration 1.0M
  Observation in Treated Eye (Number of Rats) Angiogenesis: 3 Number of Rats
  Observation in Treated Eye (Number of Rats) Corneal Keratoconus: 0 Number of Rats
  Observation in Treated Eye (Number of Rats) No Change: 7 Number of Rats
[3]; Phenol Concentration 3.0M
  Observation in Treated Eye (Number of Rats) Angiogenesis: 4 Number of Rats
  Observation in Treated Eye (Number of Rats) Corneal Keratoconus: 2 Number of Rats
  Observation in Treated Eye (Number of Rats) No Change: 1 Number of Rats
[3]; Phenol Concentration 6.5M
  Observation in Treated Eye (Number of Rats) Angiogenesis: 4 Number of Rats
  Observation in Treated Eye (Number of Rats) Corneal Keratoconus: 2 Number of Rats
  Observation in Treated Eye (Number of Rats) No Change: 1 Number of Rats
[3]; Phenol Concentration 8.5M
  Observation in Treated Eye (Number of Rats) Angiogenesis: 3 Number of Rats
  Observation in Treated Eye (Number of Rats) Corneal Keratoconus: 1 Number of Rats
  Observation in Treated Eye (Number of Rats) No Change: 2 Number of Rats
[3]; after single application of aqueous phenol solution
  period over which blood vessel growth was observed: four
[3]; all concentrations tested (0.1 M to 8.5 M), at least one of the rats in each group, one week after application
  new blood vessel formation in the cornea: new blood vessels began to form in the cornea
[3]; eight weeks after single application of 3.0 M phenol solution (10 μl), FIG. 1C
  histology of corneal epithelium, hematoxylin and eosin stain: well differentiated blood vessels can be seen under the basal membrane of the corneal epithelium
[3]; higher concentrations of phenol tested (3.0 M, 5.6 M, and 8.5 M)
  changes associated with corneal ectasia, particularly corneal keratoconus: observed in some of the rats
[3]; three weeks after application (FIG. 1B, 3 M solution)
  amount of new blood vessels observed in the cornea, compared with one week: even greater
